From paper PMC8355244, “A fragment-based approach identifies an allosteric pocket that impacts malate dehydrogenase activity” (Communications Biology, 2021)
Where “and” joins values, the source holds several entries; their conditions need not be identical. Equal entries are not always repeated. Where two headings read alike, the source gives them in different places.

Assays:
[1] = molecular target: T1, WT PfMDH (Plasmodium falciparum, UniProt Q6VVP7); experiment: Activity screening of 4DT / 4-phenylthiazol-2-amine derivatives (oxidation of malate, absorbance at 340 nm); type: biochemical; conditions: for inhibition at 500 µM: Dunnett's multiple comparisons test, read-out: Mean Diff. (positive control vs. compound); for Slope repl1 / Slope repl2: linear regression slope of absorbance 340 nm vs time; for Slope normalized repl1: slope relative to control = 1, replicate 1; for Slope normalized repl2: slope relative to control = 1, replicate 2
T1 construct: The full-length WT PfMDH gene was cloned into pETM-13; made in house; host or cells: E. coli Rosetta 2 (DE3) pLysS
T1 sequence (Q6VVP7 entry or part of it): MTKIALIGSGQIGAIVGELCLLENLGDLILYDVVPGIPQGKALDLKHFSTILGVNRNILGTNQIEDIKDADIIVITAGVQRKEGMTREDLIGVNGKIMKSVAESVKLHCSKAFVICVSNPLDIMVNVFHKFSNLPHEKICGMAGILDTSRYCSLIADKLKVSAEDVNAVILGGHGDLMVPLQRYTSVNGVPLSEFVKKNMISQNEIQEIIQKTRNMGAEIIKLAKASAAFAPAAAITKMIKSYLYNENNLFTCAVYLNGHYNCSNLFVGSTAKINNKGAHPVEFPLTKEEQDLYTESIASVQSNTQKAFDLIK
Method: The oxidation of malate to oxaloacetate was assayed spectrophotometrically in flat-bottomed Corning 96-well microplates in a total volume of 250.0 µl in 50 mM glycine buffer pH 10.2[24] with an additional 400 mM NaCl for protein stability. The increase of absorbance at 340 nm was recorded in kinetic mode using a Tecan Spark multimode microplate reader at 298 K. A mastermix of 50 mM NAD+ and 44 μM PfMDH was used for both the screening and kinetics experiments. The final concentration of protein and cofactor were […], respectively. Positive control groups were set (absence of compound) in the same plate as the treated group. The absorbance from the background noise was subtracted from the data and then a linear regression model was employed in order to get the line slope from the first 5 min of the reaction. The percentage of enzymatic activity has been calculated as described by Eq. (1)1 enzymeactivity(%)=slopetreated/slopepositivecontrol*100
1.3 µL of derivatives of 4-phenylthiazol-2-amine in 100% DMSO were mixed with 237.7 µL of a mastermix of WT PfMDH previously incubated with NAD+. The final compound concentration used in this screening was 500 µM in the presence of 0.5% (v/v) DMSO. The microplate was sealed with silver foil for 1-h incubation at 25–35 °C. Finally, reactions in both the samples and control wells were started upon the addition of 13.0 µL of 5 mM malate). At the end of the experiments, the reaction of the plate was spectrophotometrically assayed at 600 nm in order to identify turbidity due to the low solubility of the compound. All measurements were performed in duplicate.

[2] = molecular target: T2, PfMDH (Plasmodium falciparum, UniProt Q6VVP7); experiment: Thermal shift assay (TSA); type: binding; conditions: for TSA melting curve raw signal: triplicate columns; for TSA melting curve raw fluorescence signal: three replicate columns
T2 construct: The full-length WT PfMDH gene was cloned into pETM-13; made in house; host or cells: E. coli Rosetta 2 (DE3) pLysS
T2 sequence (Q6VVP7 entry or part of it): as above
Method: The TSA experiment was conducted in a BioRad CSX 96 (Biorad). Each reaction consisted of 1 mM of compound (100 mM stock in 100% (v/v) DMSO) and 10 μM PfMDH in 100 mM Na–phosphate buffer pH 7.4, 400 mM NaCl, and 10× Sypro Orange (Invitrogen) for a total volume of 100 μl. Control experiments were performed with 1% (v/v) DMSO. Inflection points were determined using BioRad CFX96™ control software. Generally, a temperature increase of over 1 °C is interpreted as a result of the stabilization of the protein-ligand interaction. On the contrary, a negative shift is considered a destabilization caused by the fragment.

[3] = 500 µM compound, Dunnett test details, positive control mean 100, n 2, read-out: Mean 2 (mean % enzymatic activity of treated group)
[4] = 500 µM compound, control 100%, replicate 1, read-out: % enzymatic activity repl1
[5] = 500 µM compound, control 100%, replicate 2, read-out: % enzymatic activity repl2

SMILES: Nc1nc(-c2ccc(F)c(F)c2)cs1 [1a]
- remaining activity at 500 µM [1, 3]: 62%
- inhibition at 500 µM ([1]; 500 µM compound): 38.5%
- remaining activity at 500 µM [1, 4]: 64%
- remaining activity at 500 µM [1, 5]: 59%
- Slope repl1 ([1]; 500 µM compound, replicate 1): 0.02136
- Slope repl2 ([1]; 500 µM compound, replicate 2): 0.02071
- Slope normalized repl1 ([1]; 500 µM compound): 0.6412
- Slope normalized repl2 ([1]; 500 µM compound): 0.591
- remaining activity at 500 µM ([1]; read-out: enzyme activity): 62%

SMILES: Nc1cc(-c2ccccc2)[nH]n1 [5b]
- remaining activity at 500 µM [1, 3]: 53%
- inhibition at 500 µM ([1]; 500 µM compound): 47.5%
- remaining activity at 500 µM [1, 4]: 63%
- remaining activity at 500 µM [1, 5]: 42%
- Slope repl1 ([1]; 500 µM compound, replicate 1): 0.02092
- Slope repl2 ([1]; 500 µM compound, replicate 2): 0.01483
- Slope normalized repl1 ([1]; 500 µM compound): 0.628
- Slope normalized repl2 ([1]; 500 µM compound): 0.4232
- remaining activity at 500 µM ([1]; read-out: enzyme activity): 53%

SMILES: Cc1c(CO)cnn1-c1ccccc1 [compound 6b]
- enzyme activity ([1]; 500 µM compound, 0.5% DMSO, vs control, mean of n = 2): no statistical difference with the control
- remaining activity at 500 µM [1, 3]: 80%
- inhibition at 500 µM ([1]; 500 µM compound): 20%
- remaining activity at 500 µM [1, 4]: 80%
- remaining activity at 500 µM [1, 5]: 80%
- Slope repl1 ([1]; 500 µM compound, replicate 1): 0.02662
- Slope repl2 ([1]; 500 µM compound, replicate 2): 0.02788
- Slope normalized repl1 ([1]; 500 µM compound): 0.7992
- Slope normalized repl2 ([1]; 500 µM compound): 0.7957

SMILES: CC(C)c1ccc(-c2csc(N)n2)cc1 [4PA-iPr]
- TSA melting curve raw signal ([2]; Temperature 25): 8994.553 and 9647.617 and 6438.185
- TSA melting curve raw signal ([2]; Temperature 28.5): 8708.714 and 9422.913 and 6243.713
- TSA melting curve raw signal ([2]; Temperature 29): 8666.326 and 9387.251 and 6213.386
- TSA melting curve raw signal ([2]; Temperature 29.5): 8621.607 and 9346.814 and 6180.231
- TSA melting curve raw signal ([2]; Temperature 30): 8573.486 and 9300.135 and 6142.94
- TSA melting curve raw signal ([2]; Temperature 30.5): 8522.699 and 9247.509 and 6102.88
- TSA melting curve raw signal ([2]; Temperature 31): 8469.615 and 9188.155 and 6059.768
- TSA melting curve raw signal ([2]; Temperature 31.5): 8414.733 and 9123.458 and 6015.201
- TSA melting curve raw signal ([2]; Temperature 32): 8359.407 and 9056.051 and 5970.18
- TSA melting curve raw signal ([2]; Temperature 32.5): 8304.924 and 8988.081 and 5926.995
- TSA melting curve raw signal ([2]; Temperature 33): 8252.482 and 8921.905 and 5886.489
- TSA melting curve raw signal ([2]; Temperature 33.5): 8202.645 and 8859.372 and 5849.818
- TSA melting curve raw signal ([2]; Temperature 34): 8155.604 and 8800.883 and 5816.694
- TSA melting curve raw signal ([2]; Temperature 34.5): 8111.732 and 8745.628 and 5787.575
- TSA melting curve raw signal ([2]; Temperature 35): 8070.534 and 8693.896 and 5761.965
- TSA melting curve raw signal ([2]; Temperature 35.5): 8031.026 and 8644.443 and 5738.964
- TSA melting curve raw signal ([2]; Temperature 36): 7993.542 and 8596.911 and 5718.436
- TSA melting curve raw signal ([2]; Temperature 36.5): 7957.673 and 8551.007 and 5700.528
- TSA melting curve raw signal ([2]; Temperature 37): 7922.464 and 8507.049 and 5684.445
- TSA melting curve raw signal ([2]; Temperature 37.5): 7887.874 and 8463.879 and 5669.608
- TSA melting curve raw signal ([2]; Temperature 38): 7853.441 and 8420.795 and 5655.816
- TSA melting curve raw signal ([2]; Temperature 38.5): 7818.479 and 8377.106 and 5642.728
- TSA melting curve raw signal ([2]; Temperature 39): 7782.8 and 8332.642 and 5629.831
- TSA melting curve raw signal ([2]; Temperature 39.5): 7746.169 and 8286.504 and 5617.536
- TSA melting curve raw signal ([2]; Temperature 40): 7708.198 and 8238.766 and 5605.837
- TSA melting curve raw signal ([2]; Temperature 40.5): 7669.164 and 8190.253 and 5594.748
- TSA melting curve raw signal ([2]; Temperature 41): 7629.283 and 8141.701 and 5584.57
- TSA melting curve raw signal ([2]; Temperature 41.5): 7588.559 and 8093.153 and 5575.514
- TSA melting curve raw signal ([2]; Temperature 42): 7547.254 and 8045.202 and 5567.299
- TSA melting curve raw signal ([2]; Temperature 42.5): 7505.687 and 7998.361 and 5560.186
- TSA melting curve raw signal ([2]; Temperature 43): 7464.06 and 7952.024 and 5554.6
- TSA melting curve raw signal ([2]; Temperature 43.5): 7421.867 and 7905.832 and 5550.504
- TSA melting curve raw signal ([2]; Temperature 44): 7379.597 and 7859.513 and 5547.899
- TSA melting curve raw signal ([2]; Temperature 44.5): 7337.446
- TSA melting curve raw fluorescence signal ([2]; Temperature 73.5): 5613.749 and 6203.164 and 5886.042
- TSA melting curve raw fluorescence signal ([2]; Temperature 74): 5569.101 and 6153.132 and 5854.081
- TSA melting curve raw fluorescence signal ([2]; Temperature 74.5): 5525.043 and 6104.144 and 5823.779
- TSA melting curve raw fluorescence signal ([2]; Temperature 75): 5482.121 and 6056.683 and 5794.617
- TSA melting curve raw fluorescence signal ([2]; Temperature 75.5): 5439.984 and 6011.409 and 5766.404
- TSA melting curve raw fluorescence signal ([2]; Temperature 76): 5398.991 and 5968.463 and 5738.594
- TSA melting curve raw fluorescence signal ([2]; Temperature 76.5): 5359.122 and 5928.32 and 5710.64
- TSA melting curve raw fluorescence signal ([2]; Temperature 77): 5320.849 and 5890.984 and 5682.195
- TSA melting curve raw fluorescence signal ([2]; Temperature 77.5): 5284.278 and 5856.438 and 5652.603
- TSA melting curve raw fluorescence signal ([2]; Temperature 78): 5250.129 and 5824.453 and 5622.025
- TSA melting curve raw fluorescence signal ([2]; Temperature 78.5): 5218.737 and 5795.085 and 5590.553
- TSA melting curve raw fluorescence signal ([2]; Temperature 79): 5190.081 and 5767.8 and 5558.166
- TSA melting curve raw fluorescence signal ([2]; Temperature 79.5): 5164.369 and 5742.56 and 5524.814
- TSA melting curve raw fluorescence signal ([2]; Temperature 80): 5141.29 and 5718.857 and 5491.376
- TSA melting curve raw fluorescence signal ([2]; Temperature 80.5): 5120.384 and 5696.2 and 5457.362
- TSA melting curve raw fluorescence signal ([2]; Temperature 81): 5101.31 and 5674.042 and 5422.806
- TSA melting curve raw fluorescence signal ([2]; Temperature 81.5): 5083.427 and 5652.313 and 5387.856
- TSA melting curve raw fluorescence signal ([2]; Temperature 82): 5065.661 and 5630.45 and 5352.463
- TSA melting curve raw fluorescence signal ([2]; Temperature 82.5): 5047.726 and 5608.308 and 5316.196
- TSA melting curve raw fluorescence signal ([2]; Temperature 83): 5028.992 and 5585.969 and 5279.628
- TSA melting curve raw fluorescence signal ([2]; Temperature 83.5): 5009.082 and 5563.202 and 5242.696
- TSA melting curve raw fluorescence signal ([2]; Temperature 84): 4988.359 and 5539.6 and 5205.226
- TSA melting curve raw fluorescence signal ([2]; Temperature 84.5): 4967.168 and 5515.215 and 5167.448
- TSA melting curve raw fluorescence signal ([2]; Temperature 85): 4945.239 and 5489.971 and 5129.648
- TSA melting curve raw fluorescence signal ([2]; Temperature 85.5): 4923.212 and 5463.869 and 5091.727
- TSA melting curve raw fluorescence signal ([2]; Temperature 86): 4900.827 and 5436.832 and 5053.765
- TSA melting curve raw fluorescence signal ([2]; Temperature 86.5): 4877.872 and 5409.317 and 5016.032
- TSA melting curve raw fluorescence signal ([2]; Temperature 87): 4854.433 and 5381.152 and 4978.26
- TSA melting curve raw fluorescence signal ([2]; Temperature 87.5): 4830.501 and 5352.422 and 4939.972
- TSA melting curve raw fluorescence signal ([2]; Temperature 88): 4805.564 and 5322.651 and 4900.899
- TSA melting curve raw fluorescence signal ([2]; Temperature 88.5): 4779.827 and 5291.937 and 4861.053
- TSA melting curve raw fluorescence signal ([2]; Temperature 89): 4753.311 and 5260.016 and 4820.436
- TSA melting curve raw fluorescence signal ([2]; Temperature 89.5): 4725.882 and 5227.256 and 4779.347
- TSA melting curve raw fluorescence signal ([2]; Temperature 90): 4698.144
